Source: the Deep4Chem optical property database
“And” between values parts separate entries of the source, which are not always exact repeats. Equal values may be shown once.

Test: solvent given as SMILES

Work on `O=CC1=C(c2ccc(-c3cccs3)s2)CCC1` yielded an absorption maximum (in C1CCOC1) of 377 nm, an absorption maximum (in CC#N) of 374 nm and an absorption maximum (in CCCCCC) of 366 nm. For the same compound, the absorption maximum (in CCO) was 386 nm, the absorption maximum (in OCCOCCO) was 377 nm and the absorption maximum (in c1ccncc1) was 385 nm.
Compound `Cc1cccn2c1cc1c3ccccc3nc(-c3cccs3)c12` has an absorption maximum (in CS(C)=O) of 398 nm.
`CN(C)c1ccc2cc3ccc(=[N+](C)C)cc-3oc2c1` showed an absorption maximum (in CCO) of 547 nm and an absorption maximum (in O) of 548 nm.
For `CCCCCC(=O)c1ccc2c3c(sc2c1)-c1ccccc1P3(=O)c1ccccc1` (configuration not stated), the absorption maximum (in ClCCl) was 359 nm and 375 nm.
Work on `CC(C)CCCC(C)CCN1C(=O)c2ccc3c(-c4ccccc4)c4c5ccc6c7c(ccc(c(-c8ccccc8)c4c4ccc(c2c34)C1=O)c75)C(=O)N(CCC(C)CCCC(C)C)C6=O` (configuration not stated) yielded an absorption maximum (in ClCCl) of 630 nm.
With `C[N+]1=C(/C=C/C=C2/N(CCC[N+](C)(C)C)c3ccc(S(=O)(=O)[O-])cc3C2(C)C)C(C)(C)c2ccccc21` the absorption maximum (in CS(C)=O) was 556 nm.
For `FC(F)(F)c1cc2n(n1)[B-]1(c3ccccc3Oc3ccccc31)[n+]1ccc3ccccc3c1-2`, the absorption maximum (in C1CCCCC1) was 375 nm, the absorption maximum (in Cc1ccccc1) was 378 nm and the absorption maximum (in ClCCl) was 372 nm.
With `CC[n+]1c(-c2ccccc2)c2cc(NC(N)=O)ccc2c2ccc(N)cc21` the absorption maximum (in O) was 463 nm.
`C(=C\c1c2ccccc2cc2ccccc12)/c1cnc2ccccc2c1` showed an absorption maximum (in CC1CCCCC1) of 386 nm and an absorption maximum (in CC#N) of 386 nm.
`CC1(C)c2ccccc2-c2ccc(N3c4ccc(-c5ccc(/C=C6\C(=O)c7ccc(C(=O)O)cc7C6=O)s5)cc4C4CCCC43)cc21` (configuration not stated) gave an absorption maximum (in ClC(Cl)Cl) of 608 nm.
Work on `CCOC(=O)C1=CN(Cc2ccccc2)C=C(C(=O)OCC)C1` yielded an absorption maximum (in C1CCOC1) of 367 nm and an absorption maximum (in CO) of 371 nm.
With `N#Cc1ccc(C#Cc2ccccc2C#N)cc1` the absorption maximum (in ClC(Cl)Cl) was 297 nm.
In the case of `CC(=O)[B-]1(C(C)=O)OC(C)=CC(c2ccc3ccccc3c2)=[O+]1`, the absorption maximum (in CC#N) is reported as 380 nm and the absorption maximum (in ClC(Cl)(Cl)Cl) is reported as 380 nm.
In the case of `F[B-]1(F)n2c(nc3c4ccccc4c4ccccc4c32)-c2cccc[n+]21`, the absorption maximum (in CC#N) is reported as 403 nm, the absorption maximum (in CCCCCC) is reported as 447 nm and the absorption maximum (in CO) is reported as 404 nm. For the same compound, the absorption maximum (in ClC(Cl)Cl) was 430 nm and the absorption maximum (in ClCCl) was 421 nm.
For `CN1/C(=C/C=C(/C=C/c2sc3ccccc3[n+]2C)c2cc(F)cc(F)c2)Sc2ccccc21`, the absorption maximum (in CCO) was 644 nm, the absorption maximum (in CO) was 641 nm and the absorption maximum (in CS(C)=O) was 651 nm. For the same compound, the absorption maximum (in O) was 638 nm.
`CC(C)(C)NC(=O)c1cccc2ccc3c4cc(Cl)ccc4c4ccc(Cl)cc4c3c12` gave an absorption maximum (in ClCCl) of 335 nm.
In the case of `Cc1sc(Cl)cc1-c1nc(-c2ccc(Cl)cc2)[nH]c1-c1cc(Cl)sc1C`, the absorption maximum (in CC#N) is reported as 309 nm.
In the case of `c1ccc2c(c1)-c1ccccc1C21c2ccccc2-c2cnccc21`, the absorption maximum (in CC1CCCO1) is reported as 305 nm.
`CC[N+](CC)=c1ccc2c(-c3ccccc3C(=O)O)c3cc4c(-c5ccccc5C(=O)O)c5ccc(=[N+](CC)CC)cc-5oc4cc3oc-2c1` showed an absorption maximum (in ClC(Cl)Cl) of 598 nm.
`O=C(c1ccc(C(=C(c2ccccc2)c2ccccc2)c2ccccc2)cc1)c1ccc(-n2c3ccccc3c3ccccc32)cc1` gave an absorption maximum (in C1CCOC1) of 340 nm.
`CCCCCCCCCCCCCCCCCCN1C(=O)c2ccc3c4ccc5c6c(ccc(c7ccc(c2c37)C1=O)c64)C(=O)N(CCCCCCCCCCCCCCCCCC)C5=O` gave an absorption maximum (in CN(C)C=O) of 525 nm.
Compound `O=C1NC(=O)c2c1c1c3ccccc3[nH]c1c1[nH]c3ccccc3c21` has an absorption maximum (in C1CCOC1) of 400 nm, an absorption maximum (in CC#N) of 402 nm and an absorption maximum (in CC(C)OC(C)C) of 391 nm. The absorption maximum (in CCCCOCCCC) was 393 nm, the absorption maximum (in CCO) was 405 nm and the absorption maximum (in CCOC(C)=O) was 398 nm. The absorption maximum (in CN(C)C=O) was 409 nm, the absorption maximum (in Cc1ccccc1) was 398 nm and the absorption maximum (in ClCCl) was 401 nm.
With `COc1ccc2nc(N)sc2c1` the absorption maximum (in CC#N) was 305 nm and the absorption maximum (in ClCCl) was 305 nm.
With `c1ccc2c(c1)c1ccccc1n2-c1ccc2c(c1)c1ccccc1n2-c1cc2c3ccccc3n3c4ccccc4c(c1)c23` the absorption maximum (in C1CCOC1) was 344 nm.
Compound `CC(C)(C)c1ccc(-c2ccc(C(C)(C)C)cc2)cc1` has an absorption maximum (in C1CCCCC1) of 256 nm.
For `CCN(CC)c1ccc(/N=N/c2nc3ccc([N+](=O)[O-])cc3s2)cc1`, the absorption maximum (in CC#N) was 546 nm and the absorption maximum (in ClCCl) was 549 nm.
`c1ccc(-c2nc3c(c4c2-c2ccccc2CC4)-c2ccccc2CC3)cc1` showed an absorption maximum (in C1CCOC1) of 314 nm, an absorption maximum (in CC#N) of 308 nm and an absorption maximum (in CCCCCC) of 309 nm. The absorption maximum (in CCOC(C)=O) was 314 nm, the absorption maximum (in CO) was 318 nm and the absorption maximum (in CS(C)=O) was 316 nm. The absorption maximum (in Cc1ccccc1) was 312 nm and the absorption maximum (in ClCCl) was 318 nm.
In the case of `CCCCn1c(-c2ccc(-c3nnc(-c4ccccc4)o3)cc2)nc(-c2ccccc2)c1-c1ccccc1`, the absorption maximum (in ClCCl) is reported as 339 nm.
Work on `O=C1c2ccccc2-c2ccc(Nc3nc(Cl)nc(Cl)n3)c3cccc1c23` yielded an absorption maximum (in CC(C)=O) of 405.02 nm, an absorption maximum (in CC(C)O) of 411.86 nm and an absorption maximum (in CCCCOCCCC) of 400.96 nm. The absorption maximum (in CCOC(C)=O) was 403.06 nm, the absorption maximum (in CO) was 410 nm and the absorption maximum (in Cc1ccccc1) was 411.02 nm. The absorption maximum (in Clc1ccccc1) was 410 nm and the absorption maximum (in O=C1CCCCC1) was 410 nm.
For `c1ccc2cc3c(cc2c1)-c1cccc2c1c-3cc1ccccc12`, the absorption maximum (in CCCCCCC) was 400 nm.
`Cc1c(COC(=O)c2ccccc2Br)n2c(OCC(=O)c3ccccc3Br)c(C)c(=O)n2c1=O` showed an absorption maximum (in CCO) of 382 nm.
Work on `O=C([O-])c1c(Cl)c(Cl)c(Cl)c(Cl)c1-c1c2cc(Cl)c(=O)c(Cl)c-2oc2c(Cl)c(O)c(Cl)cc12` yielded an absorption maximum (in O) of 537 nm.
`F[B-]1(F)n2c(ccc2-c2nc3ccccc3s2)C(c2ccccc2)=C2C=CC(c3nc4ccccc4s3)=[N+]21` gave an absorption maximum (in ClC(Cl)Cl) of 623 nm.
`CCCCCCN1C(=O)c2cccc3c(-c4scc5c4OCCO5)ccc(c23)C1=O` showed an absorption maximum (in ClC(Cl)Cl) of 390 nm.
`CCOC(=O)/N=c1/oc2cc(OC)cc(OC)c2cc1C#N` showed an absorption maximum (in ClCCl) of 376 nm.
`Cc1ccc(/C=C/c2ccccc2-[n+]2noc([O-])c2-c2ccccc2)cc1` gave an absorption maximum (in C1CCCCC1) of 316 nm, an absorption maximum (in CC#N) of 313 nm and an absorption maximum (in CCO) of 315 nm.
Compound `O=C(N/N=C/c1ccccc1O)c1cccc2ccccc12` has an absorption maximum (in C1CCOC1) of 334 nm, an absorption maximum (in CC#N) of 332 nm and an absorption maximum (in CC(C)=O) of 343 nm. The absorption maximum (in CCO) was 400 nm, the absorption maximum (in CN(C)C=O) was 395 nm and the absorption maximum (in CS(C)=O) was 329 nm. The absorption maximum (in ClCCl) was 328 nm.
`N#Cc1cc(N2c3ccccc3Oc3ccccc32)c(N2c3ccccc3Oc3ccccc32)cc1C#N` gave an absorption maximum (in c1ccc2c(c1)c1ccccc1n2-c1ccc(-c2ccc(-n3c4ccccc4c4ccccc43)cc2)cc1) of 540 nm.
Work on `CC(C)(C)c1ccc(-c2c(-c3ccc(N(c4ccccc4)c4ccccc4)cc3)cc(-c3ccc(N(c4ccccc4)c4ccccc4)cc3)c(-c3ccc(C(C)(C)C)cc3)c2-c2ccc(C(C)(C)C)cc2)cc1` yielded an absorption maximum (in C1CCOC1) of 316 nm.
Compound `COc1ccc(-c2nc(/C(C#N)=C/c3ccc(Cl)cc3)sc2-c2ccc(OC)cc2)cc1` has an absorption maximum (in CC#N) of 394 nm.
`CCN(CC)c1ccc(/N=N/c2nc3ccc(Br)cc3s2)cc1` gave an absorption maximum (in CC#N) of 520 nm and an absorption maximum (in ClCCl) of 518 nm.
With `c1ccc(-c2cc3ccccc3p2-c2ccccc2)cc1` (configuration not stated) the absorption maximum (in C1CCOC1) was 321 nm.
`Cc1ccc(-c2nc(-c3cc([N+](=O)[O-])ccc3O)[nH]c2-c2ccc(C)cc2)cc1` gave an absorption maximum (in CO) of 284 nm.
In the case of `CCCCCCCCCCCCc1sc(CCCCCC)c2c3cc(CCCCCC)sc3c3sc(CCCCCC)cc3c12`, the absorption maximum (in ClC(Cl)Cl) is reported as 373 nm.
With `COc1ccc2cc(/C=C/c3ccccc3)c(=O)oc2c1` the absorption maximum (in CC#N) was 366 nm.
`CC(C)(C)c1ccc2c(c1)c1cc(C(C)(C)C)ccc1n2-c1ccc(S(=O)(=O)c2ccc(-n3c4ccc(C(C)(C)C)cc4c4cc(C(C)(C)C)ccc43)cn2)nc1` showed an absorption maximum (in Cc1ccccc1) of 365.77 nm.
